Assay results taken from patent US8916579B2, “5-fluoropyrimidinone derivatives” (Dow AgroSciences, LLC., priority 2009, dated 2014).
Like-named read-outs stand apart in the source and are kept apart here.

Assays:
[1] = tested on: Mycosphaerella graminicola; anamorph: Septoria tritici; Bayer code SEPTTR; assay: Fungicidal activity: leaf blotch of wheat, greenhouse wheat plants (variety Yuma), percent disease control; assay type: in vivo; details: Zymoseptoria tritici
Description: Evaluation of Fungicidal Activity: Leaf Blotch of Wheat (Mycosphaerella graminicola; anamorph: Septoria tritici; Bayer code SEPTTR)
Wheat plants (variety Yuma) were grown from seed in a greenhouse in 50% mineral soil/50% soil-less Metro mix until the first leaf was fully emerged, with 7-10 seedlings per pot. These plants were inoculated with an aqueous spore suspension of Septoria tritici either prior to or after fungicide treatments. After inoculation the plants were kept in 100% relative humidity (one day in a dark dew chamber followed by two to three days in a lighted dew chamber) to permit spores to germinate and infect the leaf. The plants were then transferred to a greenhouse for disease to develop.
The effectiveness of the test compounds in controlling disease was determined by assessing the severity of disease on treated plants, then converting the severity to percent control based on the level of disease on untreated, inoculated plants. • In each case of Table II the rating scale is as follows: […]

[2] = 24 h, One-Day Protectant (1DP), 100 ppm, wheat plants, read-out: SEPTTR 100 PPM 1DP (% Disease Control rating)
[3] = 72 h, Three-Day Curative (3DC), 100 ppm, wheat plants, read-out: SEPTTR 100 PPM 3DC (% Disease Control rating)
[4] = 24 h, read-out: SEPTTR 100 PPM 1DP (% Disease Control rating)
[5] = 72 h, read-out: SEPTTR 100 PPM 3DC (% Disease Control rating)

| SMILES | melting point [°C] | pest or weed control at 100 ppm [1, 2] [%] | pest or weed control at 100 ppm [1, 3] [%] | also measured |
| --- | --- | --- | --- | --- |
| C=C(c1ccccc1)n1cc(F)c(NCc2ccccc2F)nc1=O [Compound 70] | 138.9 to 140.2 |  |  |  |
| CCOC(=O)Nc1nc(=O)n(Cc2cccnc2)cc1F [Compound 83] |  | 26 to 50 | 26 to 50 |  |
| CS(=O)(=O)c1ccc(-n2cc(F)c(NCc3ccccc3F)nc2=O)cc1 [Compound 68] | 231.6 to 233.1 |  |  |  |
| CN(C)/C=N/c1nc(=O)n(COC(=O)C(C)(C)C)cc1F [Compound 12, 2,2-dimethylpropionic acid 4-(dimethylamino-methyleneamino)-5-fluoro-2-oxo-2H-pyrimidin-1-ylmethyl ester] |  | 76 to 100 | 76 to 100 |  |
| Nc1nc(=O)n(Cc2cccnc2)cc1F [Compound 75] |  | 26 to 50 | 76 to 100 |  |
| CN(c1nc(=O)n(C)cc1F)S(=O)(=O)Cc1ccccc1 [Compound 9, N-(5-fluoro-1-methyl-2-oxo-1,2-dihydropyrimidin-4-yl)-N-methyl-C-phenylmethanesulfonamide] |  | 26 to 50 | 0 to 25 |  |
| Cc1ccc(C(=O)Nc2nc(=O)n(C)cc2F)cc1 [Compound 8, N-(5-fluoro-1-methyl-2-oxo-1,2-dihydro-pyrimidin-4-yl)-4-methyl-benzamide] |  | 26 to 50 | 0 to 25 |  |
| O=c1nc(NCc2ccccc2F)c(F)cn1C1=CCCCC1 [Compound 69] | 151.5 to 152.6 |  |  |  |
| O=c1nc(NCc2ccccc2F)c(F)cn1-c1ccc2ccccc2c1 [Compound 73] | 207.5 to 209 |  |  |  |
| Nc1nc(=O)n(CC2CC2)cc1F [Compound 74, 4-amino-1-(cyclopropylmethyl)-5-fluoropyrimidin-2(1H)-one] |  | 76 to 100 | 51 to 75 |  |
| COc1ccc(/C=C/n2cc(F)c(NCc3ccccc3F)nc2=O)cc1 [Compound 72] | 196.8 to 198.5 |  |  |  |
| CC(C)Cn1cc(F)c(NCc2ccccc2F)nc1=O [Compound 105, 5-fluoro-4-(2-fluorobenzylamino)-1-isobutyl-pyrimidin-2(1H)-one] |  |  |  | pest or weed control at 100 ppm [1, 4]: 0 to 25%; pest or weed control at 100 ppm [1, 5]: 26 to 50% |
| CN(C)/C=N/c1nc(=O)n(Cc2ccc(Cl)cc2Cl)cc1F [Compound 5] |  | 0 to 25 | 0 to 25 |  |
| CN(C)/C=N/c1nc(=O)n(Cc2ccc(F)cc2)cc1F [Compound 4, N′-[5-fluoro-1-(4-fluorobenzyl)-2-oxo-1,2-dihydro-pyrimidin-4-yl]-N,N-dimethylformamidine] |  | 26 to 50 | 0 to 25 |  |
| CCNc1nc(=O)n(CC(C)C)cc1F [Compound 107] |  | 0 to 25 | 26 to 50 |  |
| CC(C)COC(=O)N(C)c1nc(=O)n(C)cc1F [Compound 11, (5-fluoro-1-methyl-2-oxo-1,2-dihydropyrimidin-4-yl)methylcarbamic acid isobutyl ester] |  |  |  | pest or weed control at 100 ppm [1, 4]: 26 to 50%; pest or weed control at 100 ppm [1, 5]: 0 to 25% |
| CN1CCN(CNc2nc(=O)n(CN3CCN(C)CC3)cc2F)CC1 [Compound 2, 5-fluoro-1-(4-methylpiperazin-1-ylmethyl)-4-[(4-methylpiperazin-1-ylmethyl)-amino]-1H-pyrimidin-2-one] |  |  |  | pest or weed control at 100 ppm [1, 4]: 76 to 100%; pest or weed control at 100 ppm [1, 5]: 76 to 100% |
| O=c1nc(NCN2CCOCC2)c(F)cn1CN1CCOCC1 [Compound 1, 5-fluoro-1-morpholin-4-ylmethyl-4-[(morpholin-4-ylmethyl)amino]-1H-pyrimidin-2-one] |  |  |  | pest or weed control at 100 ppm [1, 4]: 76 to 100%; pest or weed control at 100 ppm [1, 5]: 76 to 100% |
| CCOCn1cc(F)c(NCc2ccccc2F)nc1=O [Compound 37, 1-(ethoxymethyl)-5-fluoro-4-(2-fluorobenzylamino)-pyrimidin-2(1H)-one] |  | 0 to 25 | 0 to 25 |  |
| Cc1ccc(Cn2cc(F)c(N)nc2=O)cc1 [Compound 25, 4-amino-5-fluoro-1-(4-methylbenzyl)-pyrimidin-2(1H)-one] |  | 0 to 25 | 0 to 25 |  |
| CC(=O)Nc1nc(=O)n(CC2CCCO2)cc1F (stereo not drawn) [Compound 95] |  | 0 to 25 | 51 to 75 |  |
| Cc1ccc(Cn2cc(F)c(N(C)Cc3ccccc3F)nc2=O)cc1 [Compound 38, 5-fluoro-4-((2-fluorobenzyl)(methyl)amino)-1-(4-methylbenzyl)pyrimidin-2(1H)-one] |  | 0 to 25 | 0 to 25 |  |
| O=c1nc(NCOCc2ccccc2)c(F)cn1COCc1ccccc1 [Compound 15, 1-(benzyloxymethyl)-4-(benzyloxymethylamino)-5-fluoropyrimidin-2(1H)-one] |  | 0 to 25 | 0 to 25 |  |

Second part, led by results:

| melting point [°C] | SMILES | pest or weed control at 100 ppm [1, 2] [%] | pest or weed control at 100 ppm [1, 3] [%] | also measured |
| --- | --- | --- | --- | --- |
| 147 to 147.9 | C=C(c1ccccc1)n1cc(F)c(/N=C/N(C)C)nc1=O [Compound 61] |  |  |  |
| 109 to 111 | CCCC(=O)OCn1cc(F)c(/N=C/N(C)C)nc1=O [Compound 13] | 76 to 100 | 76 to 100 |  |
| 173.2 to 174.4 | CN(C)/C=N/c1nc(=O)n(C2=CCCCC2)cc1F [Compound 60] |  |  |  |
| 263.3 to 265.1 | COc1ccc(/C=C/n2cc(F)c(N)nc2=O)cc1 [Compound 54] |  |  |  |
| 256 to 258 | Nc1nc(=O)n(/C=C/c2ccccc2)cc1F [Compound 48] |  |  |  |
| 137.1 to 138.8 | CCOC(=O)Nc1nc(=O)n(CSC)cc1F [Compound 84] |  |  |  |
| 222.4 to 224.4 | CN(C)/C=N/c1nc(=O)n(-c2ccc3ccccc3c2)cc1F [Compound 64] |  |  |  |
| 264.3 to 265.3 | COc1ccc(/C=C/n2cc(F)c(/N=C/N(C)C)nc2=O)cc1 [Compound 63] |  |  |  |
| 272.8 to 274.2 | Nc1nc(=O)n(-c2ccc3ccccc3c2)cc1F [Compound 55] |  |  |  |
| 152.8 to 153.4 | CCC/C=C/n1cc(F)c(N)nc1=O [Compound 53] |  |  |  |
| 190.6 to 192.7 | Nc1nc(=O)n(C2=CCCCC2)cc1F [Compound 51] |  |  |  |
| 63 to 65 | CCNc1nc(=O)n(CCOCC)cc1F [Compound 108] |  |  |  |
| 109 to 110.4 | CCOCCn1cc(F)c(NC(=O)c2cccs2)nc1=O [Compound 100] |  |  |  |
| 233 to 235 | Nc1nc(=O)n(-c2ccccc2)cc1F [Compound 42] |  |  |  |
| 207.3 to 208.2 | CCOCCn1cc(F)c(N)nc1=O [Compound 78] |  |  |  |
| 244.4 to 245.7 | CS(=O)(=O)c1ccc(-n2cc(F)c(N)nc2=O)cc1 [Compound 50] |  |  |  |
| 116.8 to 117.8 | CCOCCn1cc(F)c(NC(=O)c2ccccc2F)nc1=O [Compound 101] |  |  |  |
| 255 to 257 | Nc1nc(=O)n(-c2ccc(Cl)cc2)cc1F [Compound 45] |  |  |  |
| 128.5 to 130.6 | CSCn1cc(F)c(N)nc1=O [Compound 79] |  |  |  |
| 230 to 232 | COc1ccc(-n2cc(F)c(N)nc2=O)cc1 [Compound 44] |  |  |  |
| 212 to 214 | Nc1nc(=O)n(/C=C/Cc2ccccc2)cc1F [Compound 49] |  |  |  |
| 144.7 to 146.3 | CCC/C=C/n1cc(F)c(/N=C/N(C)C)nc1=O [Compound 62] |  |  |  |
| 211.2 to 213 | C=C(c1ccccc1)n1cc(F)c(N)nc1=O [Compound 52] |  |  |  |
